Patent publication US8324264B1, “Inhibitors of bacterial biofilms and related methods” (Sequoia Sciences, Inc., priority 2011, dated 2012)
Where a name gives a salt, the structure may show the parent alone.

melting point	SMILES
260 to 280 °C (dec.)	CC1(C)CC[C@]2(C(=O)n3cnc(S)n3)CC[C@]3(C)C(=CCC4[C@@]5(C)Cc6c(n[nH]c6N)C(C)(C)C5CC[C@]43C)C2C1 (stereo partly drawn) (as salt: ammonium) [Compound 76, ((4aS,6aS,6bR,13aR)-12-Amino-2,2,6a,6b,9,9,13a-heptamethyl-2,3,4,4a,5,6,6a,6b,7,8,8a,9,11,13,13a,13b,14,15b-octadecahydro-1H-chryseno[1,2-f]indazol-4-a-yl)(3-mercapto-1H-1,2,4-triazol-1-yl)methanone]
250 to 270 °C (dec.)	Cc1nnc(S)n1NC(=O)[C@]12CCC(C)(C)CC1C1=CCC3[C@@]4(C)Cc5c(n[nH]c5N)C(C)(C)C4CC[C@@]3(C)[C@]1(C)CC2 (stereo partly drawn) (as salt: ammonium) [Compound 77, (4aS,6aS,6bR,13aR)-12-Amino-N-(3-mercapto-5-methyl-4H-1,2,4-triazol-4-yl)-2,2,6a,6b,9,9,13a-heptamethyl-2,3,4,4a,5,6,6a,6b,7,8,8a,9,11,13,13a,13b,14,15b-octadecahydro-1H-chryseno[1,2-f]indazole-4-a-carboxamide]
250 to 260 °C (dec.)	CC1(C)CC[C@]2(c3n[nH]c(O)c3CCN)CC[C@]3(C)C(=CCC4[C@@]5(C)Cc6c(n[nH]c6N)C(C)(C)[C@@H]5CC[C@]43C)[C@@H]2C1 (stereo partly drawn) (as salt: ammonium) [Compound 84, 3-((4aS,6aS,6bR,13aR)-12-Amino-2,2,6a,6b,9,9,13a-heptamethyl-2,3,4,4a,5,6,6a,6b,7,8,8a,9,11,13,13a,13b,14,15b-octadecahydro-1H-chryseno[1,2-f]indazol-4-a-yl)-4-(2-aminoethyl)-1H-pyrazol-5-ol]
> 300 °C	CC1(C)CC[C@]2(c3n[nH]c(O)c3N3CCOCC3)CC[C@]3(C)C(=CCC4[C@@]5(C)Cc6c(n[nH]c6N)C(C)(C)[C@@H]5CC[C@]43C)[C@@H]2C1 (stereo partly drawn) (as salt: ammonium) [Compound 88, 3-((4aS,6aS,6bR,13aR)-12-Amino-2,2,6a,6b,9,9,13a-heptamethyl-2,3,4,4a,5,6,6a,6b,7,8,8a,9,11,13,13a,13b,14,15b-octadecahydro-1H-chryseno[1,2-f]indazol-4-a-yl)-4-morpholino-1H-pyrazol-5-ol]
258 to 278 °C	C[C@H]1[C@H](C)CC[C@]2(C(=O)O)CC[C@]3(C)C(=CCC4[C@@]5(C)Cc6c(n[nH]c6N)C(C)(C)[C@@H]5CC[C@]43C)[C@H]12 (stereo partly drawn) (as salt: ammonium) [Example 2, (4aS,6aS,6bR,13aR)-12-Amino-2,2,6a,6b,9,9,13a-heptamethyl-2,3,4,4a,5,6,6a,6b,7,8,8a,9,11,13,13a,13b,14,15b-octadecahydro-1H-chryseno[1,2-f]indazole-4-a-carboxylic acid]
> 300 °C	C[C@@H]1c2n[nH]c(N)c2C[C@]2(C)C3CC=C4[C@@H]5CC(C)(C)CC[C@]5(C(=O)O)CC[C@@]4(C)[C@]3(C)CC[C@@H]12 (stereo partly drawn) (as salt: ammonium) [Example 3, (4aS,6aS,6bR,8aS,9S,13aS,15bS)-12-Amino-2,2,6a,6b,9,13a-hexamethyl-2,3,4,4a,5,6,6a,6b,7,8,8a,9,11,13,13a,13b,14,15b-octadecahydro-1H-chryseno[1,2-f]indazole-4-a-carboxylic acid]
> 300 °C	CC1=C2[C@@H]3CC(C)(C)CC[C@]3(C(=O)O)CC[C@@]2(C)[C@]2(C)CC[C@H]3C(C)(C)c4n[nH]c(N)c4C[C@]3(C)C2C1 (stereo partly drawn) (as salt: ammonium) [Example 4, (4aS,6aS,6bR,8aR,13aR,15bS)-12-Amino-2,2,6a,6b,9,9,13a,15-octamethyl-2,3,4,4a,5,6,6a,6b,7,8,8a,9,11,13,13a,13b,14,15b-octadecahydro-1H-chryseno[1,2-f]indazole-4-a-carboxylic acid]
250 to 270 °C (dec.)	CC1(C)CC[C@]2(C(=O)O)CC[C@]3(C)C(=C(c4ccco4)CC4[C@@]5(C)Cc6c(n[nH]c6N)C(C)(C)[C@@H]5CC[C@]43C)[C@@H]2C1 (stereo partly drawn) (as salt: ammonium) [Example 7, (4aS,6aS,6bR,13aR)-12-Amino-15-(furan-2-yl)-2,2,6a,6b,9,9,13a-heptamethyl-2,3,4,4a,5,6,6a,6b,7,8,8a,9,11,13,13a,13b,14,15b-octadecahydro-1H-chryseno[1,2-f]indazole-4-a-carboxylic acid]
> 300 °C	CN(C)c1ccc(C2=C3[C@@H]4CC(C)(C)CC[C@]4(C(=O)O)CC[C@@]3(C)[C@]3(C)CC[C@H]4C(C)(C)c5n[nH]c(N)c5C[C@]4(C)C3C2)cc1 (stereo partly drawn) (as salt: ammonium) [Example 10, (4aS,6aS,6bR,13aR)-12-Amino-15-(4-(dimethylamino)phenyl)-2,2,6a,6b,9,9,13a-heptamethyl-2,3,4,4a,5,6,6a,6b,7,8,8a,9,11,13,13a,13b,14,15b-octadecahydro-1H-chryseno[1,2-f]indazole-4-a-carboxylic acid]
170 to 190 °C (dec.)	CC1(C)CC[C@]2(C(=O)O)CC[C@]3(C)C(=C(c4ccc5c(c4)CCN5)CC4[C@@]5(C)Cc6c(n[nH]c6N)C(C)(C)[C@@H]5CC[C@]43C)[C@@H]2C1 (stereo partly drawn) (as salt: ammonium) [Example 11, (4aS,6aS,6bR,13aR)-12-Amino-15-(indolin-5-yl)-2,2,6a,6b,9,9,13a-heptamethyl-2,3,4,4a,5,6,6a,6b,7,8,8a,9,11,13,13a,13b,14,15b-octadecahydro-1H-chryseno[1,2-f]indazole-4-a-carboxylic acid]
> 300 °C	CCC1=C2[C@@H]3CC(C)(C)CC[C@]3(C(=O)O)CC[C@@]2(C)[C@]2(C)CC[C@H]3C(C)(C)c4n[nH]c(N)c4C[C@]3(C)C2C1 (stereo partly drawn) (as salt: ammonium) [Example 14, (4aS,6aS,6bR,8aR,13aR,15bS)-12-Amino-15-ethyl-2,2,6a,6b,9,9,13a-heptamethyl-2,3,4,4a,5,6,6a,6b,7,8,8a,9,11,13,13a,13b,14,15b-octadecahydro-1H-chryseno[1,2-f]indazole-4-a-carboxylic acid]
260 to 280 °C (dec.)	CC1(C)CC[C@]2(C(=O)O)CC[C@]3(C)C(=C(c4cccc(O)c4)CC4[C@@]5(C)Cc6c(n[nH]c6N)C(C)(C)C5CC[C@]43C)C2C1 (stereo partly drawn) (as salt: ammonium) [Example 16, (4aS,6aS,6bR,13aR)-12-Amino-15-(3-hydroxyphenyl)-2,2,6a,6b,9,9,13a-heptamethyl-2,3,4,4a,5,6,6a,6b,7,8,8a,9,11,13,13a,13b,14,15b-octadecahydro-1H-chryseno[1,2-f]indazole-4-a-carboxylic acid]
210 to 230 °C (dec.)	CC1(C)CC[C@]2(C(=O)O)CC[C@]3(C)C(=C(c4ccccc4N)CC4[C@@]5(C)Cc6c(n[nH]c6N)C(C)(C)C5CC[C@]43C)C2C1 (stereo partly drawn) (as salt: ammonium) [Example 23, (4aS,6aS,6bR,13aR)-12-Amino-15-(2-aminophenyl)-2,2,6a,6b,9,9,13a-heptamethyl-2,3,4,4a,5,6,6a,6b,7,8,8a,9,11,13,13a,13b,14,15b-octadecahydro-1H-chryseno[1,2-f]indazole-4-a-carboxylic acid]
